According to PMC5381274 (FEBS letters, 2016):

Columns and labels:
NCI H929 cells = assay: JC1 BH3 profiling, NCI H929; assay type: cell-based; conditions: Figure 4A
K562 cells = assay: JC1 BH3 profiling, K562; assay type: cell-based; conditions: Figure 4B

Compound	Mitochondrial depolarization in NCI H929 (BH3 profiling) (NCI H929 cells)	Mitochondrial depolarization in K562 (BH3 profiling) (K562 cells)
CSCC[C@H](NC(=O)[C@H](CCCNC(=N)N)NC(=O)[C@H](CCCNC(=N)N)NC(=O)[C@H](CC(C)C)NC(=O)[C@H](CCC(=O)O)NC(=O)[C@H](CCCNC(=N)N)NC(=O)CNC(=O)[C@H](Cc1ccc(O)cc1)NC(=O)[C@H](CCCNC(=N)N)NC(=O)[C@H](CCC(N)=O)NC(=O)[C@H](C)NC(=O)[C@H](C)NC(=O)[C@H](Cc1c[nH]c2ccccc12)NC(=O)[C@H](CC(C)C)NC(C)=O)C(=O)N[C@@H](CO)C(=O)N[C@@H](CC(=O)O)C(=O)N[C@@H](CCC(=O)O)C(=O)N[C@@H](Cc1ccccc1)C(=O)N[C@@H](CCC(=O)O)C(=O)NCC(=O)N[C@@H](CO)C(=O)N[C@@H](Cc1ccccc1)C(=O)N[C@@H](CCCCN)C(=O)NCC(=O)N[C@@H](CC(C)C)C(N)=O [Bad]	not affected	
CC[C@H](C)[C@H](NC(=O)[C@H](CCC(=O)O)NC(=O)[C@H](CC(=O)O)NC(=O)CNC(=O)[C@H](CC(C)C)NC(=O)[C@H](CCCNC(=N)N)NC(=O)[C@H](CCCNC(=N)N)NC(=O)[C@H](CC(C)C)NC(=O)CNC(=O)[C@H](CCC(N)=O)NC(=O)[C@@H](NC(=O)[C@H](CCSC)NC(=O)[C@H](Cc1c[nH]c2ccccc12)NC(=O)[C@@H](NC(=O)[C@H](CCC(=O)O)NC(=O)[C@@H]1CCCN1C(=O)[C@H](CCCNC(=N)N)NC(C)=O)[C@@H](C)CC)[C@@H](C)O)C(=O)N[C@@H](CC(N)=O)C(=O)N[C@@H](C)C(=O)N[C@@H](Cc1ccc(O)cc1)C(=O)N[C@@H](Cc1ccc(O)cc1)C(=O)N[C@@H](C)C(=O)N[C@@H](CCCNC(=N)N)C(N)=O [MS-1]	mitochondrial depolarization was observed	insensitive
Ac-WSSAAQLTAARLKALGDELHQ-NH2 [HRK]	not affected	
